Data set [1] in a line: rat pharmacokinetics, intravenous. The format is in vivo, male Sprague-Dawley rats. The settings on record: for AUC: male, Sprague-Dawley, rat, whole blood, iv, 0.5 mg/kg.
Data set [2] can be described thus: rat liver microsomal incubations, intrinsic clearance. The class given is in vitro ADME. Particulars: Sprague-Dawley, microsomes, pH 7.4.
For data set [3], the target named is T1, hURAT1 (SLC22A12) (Homo sapiens, UniProt Q96S37).
T1 sequence (Q96S37 1-553): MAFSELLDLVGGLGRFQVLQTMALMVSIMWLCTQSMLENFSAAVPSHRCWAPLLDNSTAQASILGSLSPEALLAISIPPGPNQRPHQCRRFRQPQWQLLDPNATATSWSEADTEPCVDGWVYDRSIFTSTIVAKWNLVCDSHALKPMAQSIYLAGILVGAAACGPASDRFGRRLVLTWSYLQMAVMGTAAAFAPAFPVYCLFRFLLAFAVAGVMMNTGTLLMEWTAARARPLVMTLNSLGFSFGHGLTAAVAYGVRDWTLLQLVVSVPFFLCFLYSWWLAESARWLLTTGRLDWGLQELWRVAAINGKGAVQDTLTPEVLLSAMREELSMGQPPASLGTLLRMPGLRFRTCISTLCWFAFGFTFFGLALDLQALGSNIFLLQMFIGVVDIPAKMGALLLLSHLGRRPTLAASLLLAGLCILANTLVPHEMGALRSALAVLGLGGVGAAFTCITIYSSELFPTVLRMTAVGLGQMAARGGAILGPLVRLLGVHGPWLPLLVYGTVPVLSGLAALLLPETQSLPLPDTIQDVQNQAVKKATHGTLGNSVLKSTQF
The data set is described as follows: inhibition of 14C-urate uptake in oocytes expressing hURAT1. The format is cell-based. Particulars: for IC50: hURAT1 IC50 (nM) ± SD, inhibition of 14C-urate uptake in oocytes expressing hURAT1; for fold weaker hURAT1 inhibitor than (1): IC50 compared with (1) (26 nM).

The conditions of data set [4]: cited from earlier work.

The structures appear in SMILES notation. Where two headings read alike, the source gives them in different places.

In the case of `CCc1oc2ccc(F)cc2c1C(=O)c1cc(Br)c(O)c(Br)c1` [(9), (3,5-dibromo-4-hydroxyphenyl)(2-ethyl-5-fluorobenzofuran-3-yl)methanone], in data set [1], the AUC turned out to be 5260 ± 810 ng·h/mL. In data set [2], this compound showed a microsomal CLint at 1 µM of 142 ± 5.5 µL/min/mg. Consider `CCc1oc2ccccc2c1C(=O)c1ccc(O)c(Cl)c1` [(11), (3-chloro-4-hydroxyphenyl)(2-ethylbenzofuran-3-yl)methanone], for which half-maximal inhibition in data set [3] (IC50) required 874 ± 56 nM.

As for `CCc1cc2c(C(=O)c3cc(Br)c(O)c(Br)c3)c(O)ccc2o1` [(25), (3,5-dibromo-4-hydroxyphenyl)(2-ethyl-5-hydroxybenzofuran-4-yl)methanone], in data set [2], the microsomal CLint at 1 µM is 94.8 ± 5.1 µL/min/mg.

`CCc1oc2cc(Br)c(O)c(Br)c2c1C(=O)c1ccc(OC)cc1` [(7), (4,6-dibromo-2-ethyl-5-hydroxybenzofuran-3-yl)(4-methoxyphenyl)methanone]: the intrinsic clearance (microsomal CLint) at 1 µM in data set [2] was determined as 286.8 ± 0.9 µL/min/mg. On the same count and under the same terms, next, `CCc1cc2c(C(=O)c3cc(Br)c(O)c(Br)c3)c(OC)ccc2o1` [(24), (3,5-dibromo-4-hydroxyphenyl)(2-ethyl-5-methoxybenzofuran-4-yl)methanone]: 323 ± 10.8 µL/min/mg. `CCc1oc2cc(O)ccc2c1C(=O)c1cc(Br)c(O)c(Br)c1` [(5), (3,5-dibromo-4-hydroxyphenyl)(2-ethyl-6-hydroxybenzofuran-3-yl)methanone] returned an AUC in data set [1] of 6160 ± 680 ng·h/mL. The compound further showed an intrinsic metabolic clearance (microsomal CLint) at 1 µM in data set [2] of 19.7 ± 2.8 µL/min/mg.

`CCCCc1oc2ccccc2c1C(=O)c1cc(Br)c(O)c(Br)c1` [(18), (2-butylbenzofuran-3-yl)(3,5-dibromo-4-hydroxyphenyl)methanone]: half-maximal inhibition in data set [3] (IC50) was put at 1930 ± 90 nM.

Regarding `CCCCc1oc2ccccc2c1C(=O)c1ccc(O)cc1` [(17), (2-butylbenzofuran-3-yl)(4-hydroxyphenyl)methanone], the “hURAT1 inhibition compared with corresponding ethyl analog” value in data set [3] (butyl versus ethyl analog, ethyl analog ref 10) was “much weaker inhibitor than the corresponding ethyl analog”. Take `CCc1oc2ccc(OC)cc2c1C(=O)c1cc(Br)c(O)c(Br)c1` [(6), (3,5-dibromo-4-hydroxyphenyl)(2-ethyl-5-methoxybenzofuran-3-yl)methanone]: the exposure (AUC) in data set [1] is 2630 ± 250 ng·h/mL. Also, the microsomal CLint at 1 µM in data set [2] turned out to be 44.9 ± 6.6 µL/min/mg. Regarding `O=c1[nH]c(=O)c2[nH]c(=O)[nH]c2[nH]1` [uric acid], in data set [4] (in urine), the pKa was 5.4.

Regarding `CCc1oc2cc(OC)ccc2c1C(=O)c1cc(Br)c(O)c(Br)c1` [(3), (3,5-dibromo-4-hydroxyphenyl)(2-ethyl-6-methoxybenzofuran-3-yl)methanone], the exposure (AUC) in data set [1] is 9600 ± 280 ng·h/mL. Also, the intrinsic metabolic clearance (microsomal CLint) at 1 µM in data set [2] came to 207 ± 4.2 µL/min/mg. In the case of `CCc1cc2cc(OC)cc(C(=O)c3ccc(OC)cc3)c2o1` [(20), (2-ethyl-5-methoxybenzofuran-7-yl)(4-methoxyphenyl)methanone], in data set [2], the microsomal CLint at 1 µM worked out at 704 ± 12.7 µL/min/mg. On to `CCc1oc2ccccc2c1C(=O)c1ccc(O)c(F)c1` [(10), (2-ethylbenzofuran-3-yl)(3-fluoro-4-hydroxyphenyl)methanone], for which, in data set [3], inhibition was half-maximal at 2410 ± 90 nM (IC50).

As for `CCc1oc2ccccc2c1C(=O)c1ccc(O)c(Br)c1` [(12), (3-bromo-4-hydroxyphenyl)(2-ethylbenzofuran-3-yl)methanone], the concentration for half-maximal inhibition (IC50) in data set [3] worked out at 814 ± 160 nM. Turning to `CCc1oc2ccccc2c1C(=O)c1cc(Cl)c(O)c(Cl)c1` [(19), (3,5-dichloro-4-hydroxyphenyl)(2-ethylbenzofuran-3-yl)methanone], in data set [3], the “fold weaker hURAT1 inhibitor than (1)” value is recorded as ~ 15 fold and the concentration for half-maximal inhibition (IC50) was 399 ± 56 nM. With `CC(C)(C)c1cccc(C(C)(C)C)c1O` [2,6-di-tert-butyl-phenol], the pKa in data set [4] (phenol pKa values ref 11) is on record as 10.2.

As to `CCc1oc2ccc(O)cc2c1C(=O)c1cc(Br)c(O)c(Br)c1` [(8), (3,5-dibromo-4-hydroxyphenyl)(2-ethyl-5-hydroxybenzofuran-3-yl)methanone], the AUC in data set [1] was found to be 940 ± 80 ng·h/mL. The intrinsic clearance (microsomal CLint) at 1 µM in data set [2] is 52 ± 0.1 µL/min/mg. With `CCc1oc2ccccc2c1C(=O)c1cc(Br)c(O)c(Br)c1` [(1), (3,5-dibromo-4-hydroxyphenyl)(2-ethylbenzofuran-3-yl)methanone, reference compound], the area under the curve (AUC) in data set [1] came to 9070 ± 590 ng·h/mL. Further, the T1/2 in data set [1] (parent compound, orbital sinus 0.5 mg/kg, blood, n = 3 ± SD) was 1.1 ± 0.1 h. Besides, the microsomal CLint at 1 µM in data set [2] worked out at 51.3 ± 6.7 µL/min/mg.

With `CCc1oc2cc(OC)c(Br)cc2c1C(=O)c1cc(Br)c(O)c(Br)c1` [(4), (5-bromo-2-ethyl-6-methoxybenzofuran-3-yl)(3,5-dibromo-4-hydroxyphenyl)methanone], the microsomal CLint at 1 µM in data set [2] came out at 23.5 ± 10.9 µL/min/mg. Compound `CCc1cc2c(C(=O)c3ccc(OC)cc3)cc(Br)c(O)c2o1` [(23), (6-bromo-2-ethyl-7-hydroxybenzofuran-4-yl)(4-methoxyphenyl)methanone] returned a microsomal CLint at 1 µM in data set [2] of 121 ± 12.2 µL/min/mg.

In data set [2], `CCc1cc2cc(O)cc(C(=O)c3cc(Br)c(O)c(Br)c3)c2o1` [(22), (3,5-dibromo-4-hydroxyphenyl)(2-ethyl-5-hydroxybenzofuran-7-yl)methanone] registered an intrinsic metabolic clearance (microsomal CLint) at 1 µM of 454 ± 18.2 µL/min/mg. On the same count and under the same terms, next, `CCc1cc2c(C(=O)c3cc(Br)c(O)c(Br)c3)cc(Br)c(O)c2o1` [(26), (6-bromo-2-ethyl-7-hydroxybenzofuran-4-yl)(3,5-dibromo-4-hydroxyphenyl)methanone]: 34.3 ± 1.2 µL/min/mg. In data set [3], `CCc1oc2ccccc2c1C(=O)c1cc(C)c(O)c(C)c1` [(15), (2-ethylbenzofuran-3-yl)(4-hydroxy-3,5-dimethylphenyl)methanone] gave a 50% inhibitory concentration (IC50) of 7540 ± 60 nM.

For the compound `CCc1oc2ccccc2c1C(=O)c1cc(Br)c(OC)c(Br)c1` [(16), (3,5-dibromo-4-methoxyphenyl)(2-ethylbenzofuran-3-yl)methanone], in data set [3], the “fold weaker hURAT1 inhibitor than (1)” value is ~ 47 fold and the IC50 is 1220 ± 110 nM. As for `CCc1oc2ccccc2c1C(=O)c1ccc(O)c(I)c1` [(13), (2-ethylbenzofuran-3-yl)(4-hydroxy-3-iodophenyl)methanone], half-maximal inhibition in data set [3] (IC50) was put at 1490 ± 80 nM. For the compound `CCc1cc2cc(OC)cc(C(=O)c3cc(Br)c(O)c(Br)c3)c2o1` [(21), (3,5-dibromo-4-hydroxyphenyl)(2-ethyl-5-methoxybenzofuran-7-yl)methanone], the microsomal CLint at 1 µM in data set [2] worked out at 210 ± 5.9 µL/min/mg. On the same count and under the same terms, next, `CCc1oc2ccc(OC)cc2c1C(=O)c1ccc(O)cc1` [(2), (2-ethyl-5-methoxybenzofuran-3-yl)(4-hydroxyphenyl)methanone]: 412 ± 6.4 µL/min/mg.

Values taken from PMC3496402 (Drug Design, Development and Therapy, 2012).
